The subject of the experiment is HA mice. In words: Antigen specificity: ovalbumin given concomitantly with FVIII or FVIII-PS/PC at a distant site. In kind it is in vivo. As to conditions: ovalbumin concomitantly administered at a distant anatomical site; ±SEM. An excerpt:
During the reverse vaccination strategy, it is desirable that the immunization should not interfere with the ability of the immune system to mount immune response against other antigens and pathogens. In order to investigate the antigen specificity and effect of immunization on the systemic immune suppression, another foreign antigen; ovalbumin (Ova) was concomitantly administered with either FVIII or FVIII-PS/PC complexes, but at a distant anatomical site.

“Ova: ovalbumin, another foreign antigen given concomitantly at a distant anatomical site”: the “Anti-FVIII Nab titers” value was “no anti-FVIII Nabs”.

The values above are taken from patent US10064922B2, “Compositions and methods for immune tolerance induction” (The Research Foundation for The State University of New York, priority 2011, dated 2018).
